Experimental data taken from patent US10407388B2, “Thiourea derivatives as activators of RORα and pharmaceutical composition containing same” (SEOUL NATIONAL UNIVERSITY R & DB FOUNDATION, priority 2011, dated 2019).

What was measured:
MTTP = experiment: VLDL secretion gene MTTP in HepG2 cells, RT-PCR; assay type: cell-based, human; conditions: 100 μM, 24 hours; FIG. 9b
Method: HepG2 cells (1×10^6 cells/well) were seeded on a 60-dish, and cultured overnight in a DMEM containing 10% FBS. The HepG2 cells were maintained at 37° C. in a humidification thermostat containing 5% CO2 and 95% air. After culturing, the HepG2 cells were treated with JC1-38, JC1-40, and JC1-42 at a concentration of 100 μM for 24 hours. After treatment, effects thereof on transcriptional activity were analyzed by RT-PCR analysis. The PCR was performed using the following primers respectively specific to CD36 (see FIG. 9a) involved in fatty acid uptake and MTTP and ApoB100 (see FIG. 9b), which are involved in the secretion of very low density lipoproteins: […]

SREBP-1 = experiment: Expression of SREBP-1 protein in HepG2 cells, western blotting; assay type: cell-based, human; conditions: for expression of SREBP-1 protein: 100 μM, 24 hours, FIG. 6a; for expression of SREBP-1, which had been increased by T17: 0, 1, 10, 50, 100 μM with 1 μM T17, 24 hours, FIGS. 6b and 6c; for expression of proteins (LXRα, SREBP-1, FAS of FIGS. 6b and 6c): 50 μM to 100 μM with 1 μM T17, 24 hours
Method: (§1) HepG2 cells (1×10^6 cells/well) were seeded on a 60-dish and cultured overnight in a DMEM containing 10% FBS. The HepG2 cells were maintained at 37° C. in a humidification thermostat containing 5% CO2 and 95% air. After culturing, the HepG2 cells were treated with each of the JC1-38, JC1-40, and JC1-42 compounds at a concentration of 100 μM, and, as a positive control, the HepG2 cells were treated with 2 mM metformin, which is an AMPK activator, for 24 hours. After treatment, the expression of proteins was analyzed by western blotting analysis. That is, after treatment, the HepG2 cells were destroyed on ice in a lysis buffer containing 50 mM NaCl, 50 mM Tris pH 7.4, 5 mM EDTA, 1% NP-40, and a protease inhibitor for 30 minutes, and then centrifuged to obtain a total cell lysate. 20 μg to 30 μg of proteins collected from the total cell lysate was subjected to 7% to 9% sodium dodecyl sulfate-polyacrylamide gel electrophoresis (SDS-PAGE), and was transferred to a polyvinylidene difluoride membrane (Millipore, Bedford, Mass., USA). The resulting product was subjected to blocking with 5% or 10% (w/v) nonfat dry milk in PBS containing 0.1% Tween-20, and was reacted with antibodies specific to RORα (Affinity BioReagents), LXRα, SREBP-1, FAS (Santa Cruz Biotechnology), phospho-ACC (Cell signaling), and α-tubulin (Calbiochem). Immunoreactive proteins were detected with Amersham ECL western blotting detection reagents using a horseradish peroxidase (HRP)-conjugated secondary antibody (Zymed Lab). Protein concentrations were quantified by bicinchoninic acid (BCA) (Pierce) analysis, and the expression of α-tubulin was monitored as a control. The results thereof are illustrated in FIG. 6a.
(§2) In addition, HepG2 cells were cultured under the same conditions, and then the HepG2 cells were treated with particular concentrations (0 μM, 1 μM, 10 μM, 50 μM, and 100 μM) of JC1-40 (or JC1-42) and 1 μM T17 for 24 hours. After treatment, the expression of proteins was analyzed by western blotting analysis, and the expression of α-tubulin was monitored as a control. The results thereof are illustrated in FIGS. 6b and 6c.

RORα = target: T1, RORα (Homo sapiens, UniProt P35398); experiment: Transcriptional activity of RORα according to concentration, RORE-Luc reporter and Flag-RORα vector in CV-1 cells (Experimental Example 2); assay type: cell-based; conditions: for transcriptional activity of RORα / activity of RORα at low concentrations: 1 μM; for transcriptional activity of RORα: 10 μM, 20 μM, 50 μM, and 100 μM, 24 hours, FIG. 4; for activity of RORα at low concentrations: 10 μM, and 20 μM; for effect of increasing the activity of RORα compared with melatonin: 50 μM to 100 μM, melatonin 100 μM
T1 construct: expressed in transfected cells; host or cells: CV-1 cells (ATCC CCL-70)
T1 sequence (P35398 1-523): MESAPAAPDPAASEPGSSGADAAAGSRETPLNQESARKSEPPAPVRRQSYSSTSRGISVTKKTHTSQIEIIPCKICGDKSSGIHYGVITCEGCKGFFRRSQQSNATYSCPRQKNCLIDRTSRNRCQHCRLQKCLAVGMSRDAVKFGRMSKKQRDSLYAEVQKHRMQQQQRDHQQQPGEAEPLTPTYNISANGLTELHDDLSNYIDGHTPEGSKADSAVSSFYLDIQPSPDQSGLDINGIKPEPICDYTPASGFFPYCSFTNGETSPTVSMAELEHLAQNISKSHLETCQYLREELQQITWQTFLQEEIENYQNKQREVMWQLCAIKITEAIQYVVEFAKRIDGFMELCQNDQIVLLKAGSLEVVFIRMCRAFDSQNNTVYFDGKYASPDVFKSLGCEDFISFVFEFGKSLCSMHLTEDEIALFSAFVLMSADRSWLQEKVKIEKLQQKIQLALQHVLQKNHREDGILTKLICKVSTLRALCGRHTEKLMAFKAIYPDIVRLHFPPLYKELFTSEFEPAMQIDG
Method: CV-1 cells (4×10^4 cells/well) were seeded on a 24-well culture plate and cultured overnight in a DMEM containing 10% FBS. The CV-1 cells were maintained at 37° C. in a humidification thermostat containing 5% CO2 and 95% air. After culturing, the CV-1 cells were transformed with RORE-Luc reporter (0.05 μg) and Flag-RORα vector (0.005 μg) using calcium phosphate. […] Subsequently, cell lysates were collected, and luciferase activity was analyzed and determined using an analytical luminescence luminometer. The luciferase activity was standardized by β-gal activity to determine transcriptional efficiency, and data was attained as the mean and SD for two or three independent experimental results, and the results thereof are illustrated in FIG. 4.

LXRα = experiment: Expression of LXRα protein in HepG2 cells, western blotting; assay type: cell-based, human; conditions: for expression of LXRα protein: 100 μM, 24 hours, FIG. 6a
Method: as §1, §2

## CNC(=S)NCc1ccccc1-c1ccncc1 [Compound 38, 1-methyl-3-(4-pyridinyl-2-benzyl)-thiourea]
MTTP
  transcriptional activity of MTTP: increased
SREBP-1
  expression of SREBP-1 protein: decreased
RORα
  transcriptional activity of RORα: increased in a manner dependent on the concentration
  activity of RORα at low concentrations: insignificantly increased
  effect of increasing the activity of RORα compared with melatonin: comparable to or surpassed the effect provided by melatonin
LXRα
  expression of LXRα protein: decreased

## CNC(=S)NCc1ccc(Oc2ccccc2)cc1 [Compound 42, 1-(4-phenoxy-benzyl)-3-methyl-thiourea]
MTTP
  transcriptional activity of MTTP: increased
SREBP-1
  expression of SREBP-1, which had been increased by T17: decreased in a manner dependent on the concentration
  expression of proteins (LXRα, SREBP-1, FAS of FIGS. 6b and 6c): strongly inhibited
  expression of SREBP-1 protein: decreased
RORα
  transcriptional activity of RORα: increased in a manner dependent on the concentration
  activity of RORα at low concentrations: insignificantly increased
  effect of increasing the activity of RORα compared with melatonin: comparable to or surpassed the effect provided by melatonin
LXRα; 0, 1, 10, 50, 100 μM with 1 μM T17, 24 hours, FIG. 6c
  expression of LXRα, which had been increased by T17: decreased in a manner dependent on the concentration
LXRα
  expression of LXRα protein: decreased

## CNC(=S)NCc1ccc(OCc2ccccc2)cc1 [Compound 40, 1-(4-benzyloxy-benzyl)-3-methyl-thiourea]
MTTP
  transcriptional activity of MTTP: increased
SREBP-1
  expression of SREBP-1, which had been increased by T17: decreased in a manner dependent on the concentration
  expression of proteins (LXRα, SREBP-1, FAS of FIGS. 6b and 6c): strongly inhibited
  expression of SREBP-1 protein: decreased
RORα
  transcriptional activity of RORα: increased in a manner dependent on the concentration
  activity of RORα at low concentrations: insignificantly increased
  effect of increasing the activity of RORα compared with melatonin: comparable to or surpassed the effect provided by melatonin
LXRα
  expression of LXRα protein: decreased
